Test results published in patent publication US6818663B2, “Diaminothiazoles” (Hoffmann-La Roches, priority 2002, dated 2004).
pIC50: −log10 of the molar value.

Tests used:
human cyclin B-CDK1 = human cyclin B-CDK1 (Homo sapiens, UniProt P06493); assay: FlashPlate kinase assay, cyclin B-CDK1, Rb substrate; assay type: biochemical; conditions: recombinant cyclin B-CDK1, Rb phosphorylation, 1 μM ATP
Experimental: (§1) To determine inhibition of Cdk4, Cdk2 and Cdk1 activity, kinase assays were conducted using FlashPlate™ assays (NEN™-Life Science Products). FlashPlate assays were performed using recombinant human cyclin B-CDK1, human cyclin E-CDK2 or human cyclin D1-CDK4 complexes. GST-cyclinE (GST-cycE), CDK2, GST-cyclinB (GST-cycB), CDK1, GST-CDK4 and cyclin D1 (cycD1) cDNA clones in baculovirus vectors were provided by Dr. W. Harper at the Baylor College of Medicine, Houston, Tex. Proteins were co-expressed in High Five™ insect cells and the complex was purified on glutathione Sepharose resin (Pharmacia, Piscataway, N.J.) as previously described (Harper, J. W. et al. Cell 1993, 75, 805-816). A 6×-Histidine tagged truncated form of retinoblastoma (Rb) protein (amino acid 386-928) was used as the substrate for the cycD1-CDK4, cycB-CDK1 and the cycE-CDK2 assays (the expression plasmid was provided by Dr. Veronica Sullivan, Department of Molecular Virology, Roche Research Centre, Welwyn Garden City, United Kingdom). The Rb protein is a natural substrate for phosphorylation by CDK4, CDK2 and CDK1 (see Herwig and Strauss Eur. J. Biochem. Vol. 246 (1997) pp. 581-601 and the references cited therein).
(§2) The expression of the 62 Kd protein was under the control of an IPTG inducible promoter in an M15 E. coli strain. Cells were lysed by sonication and purification was carried out by binding lysates at pH 8.0 to a Ni-chelated agarose column pretreated with 1 mM imidazole. The resin was then washed several times with incrementally decreasing pH buffers to pH 6.0, and eluted with 500 mM imidazole. Eluted protein was dialysed against 20 mM HEPES pH 7.5, 30% glycerol, 200 mM NaCl, and 1 mM DTT. Purified Rb fusion protein stocks were quantitated for protein concentration, aliquoted, and stored at −70° C.
(§3) For all three kinase assays reported herein, 96-well FlashPlates were coated with Rb protein at 10 μg/ml, using 100 μl per well. Plates were incubated at 4° C. overnight or at room temperature for 3 hours on a shaker. To control for nonspecific phosphorylation, one row of wells was coated with 100 μl/well coating buffer (20 mM HEPES, 0.2 M NaCl). Plates were then washed twice with wash buffer (0.01% Tween 20 in phosphate-buffered saline). Compounds to be tested (“test compounds”) were added to the wells at 5×final concentration. Reactions were initiated by immediate addition of 40 μl reaction mix (25 mM HEPES, 20 mM MgCl2, 0.002% Tween 20, 2 mM DTT, 1 μM ATP, 4 nM ^33P-ATP) and a sufficient amount of enzyme to give counts that were at least 10-fold above background. Plates were incubated at room temperature on a shaker for 30 minutes. Plates were washed four times with the wash buffer, sealed, and counted on the TopCount scintillation counter (Packard Instrument Co., Downers Grove, Ill.]. The percent inhibition of Rb phosphorylation, which is a measure of the inhibition of CDK activity, was determined according to the following formula: [formula]
(§4) where “test compound” refers to the average counts per minute of the test duplicates, “nonspecific” refers to the average counts per minute when no CyclinD/Cdk4, etc., was added, and “total” refers to the average counts per minute when no compound was added. The IC50 value is the concentration of test compound that reduces by 50% the protein-kinase induced incorporation of the radiolabel under the test conditions described.

human cyclin D1-CDK4 = human cyclin D1-CDK4 (Homo sapiens, UniProt P11802); assay: FlashPlate kinase assay, cyclin D1-CDK4, Rb substrate; assay type: biochemical; conditions: recombinant cyclin D1-CDK4, Rb phosphorylation, 1 μM ATP
Chain of human cyclin D1-CDK4 (P11802 whole entry): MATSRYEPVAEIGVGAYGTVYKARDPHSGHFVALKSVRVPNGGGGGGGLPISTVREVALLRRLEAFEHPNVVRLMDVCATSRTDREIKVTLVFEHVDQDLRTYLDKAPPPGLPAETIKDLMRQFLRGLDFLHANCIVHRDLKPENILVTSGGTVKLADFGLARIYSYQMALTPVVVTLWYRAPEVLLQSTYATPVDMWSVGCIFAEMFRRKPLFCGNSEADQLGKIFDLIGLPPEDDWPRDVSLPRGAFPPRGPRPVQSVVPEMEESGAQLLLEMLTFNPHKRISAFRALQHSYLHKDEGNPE
Chain of human cyclin D1-CDK4 (P24385 whole entry partner): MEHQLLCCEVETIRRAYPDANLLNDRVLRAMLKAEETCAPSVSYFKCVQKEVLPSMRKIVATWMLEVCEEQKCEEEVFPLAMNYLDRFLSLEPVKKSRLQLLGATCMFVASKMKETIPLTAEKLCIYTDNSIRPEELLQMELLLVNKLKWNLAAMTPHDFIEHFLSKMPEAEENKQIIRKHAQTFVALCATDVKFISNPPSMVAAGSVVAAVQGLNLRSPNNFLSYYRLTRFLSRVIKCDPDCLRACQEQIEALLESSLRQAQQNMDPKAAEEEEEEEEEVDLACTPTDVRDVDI
Experimental: as §1, §2, §3, §4

[1] = test system: HCT116, a colorectal carcinoma cell line; assay: Tetrazolium dye proliferation assay (MTT assay); assay type: cell-based; conditions: inhibition of cell proliferation
Experimental: Proliferation was evaluated by the tetrazolium dye assay according to the procedure of Denizot and Lang (Denizot, F. and Lang, R. J Immunol Methods 1986, 89, 271-277). The cell line used was HCT116, a colorectal carcinoma cell line obtained from the American Type Cell Culture Collection (ATCC; Rockville, Md.). The cells were grown in McCoy's 5A medium supplemented with 10% FCS and L-glutamine.
Cells were plated at the appropriate seeding density to give logarithmic growth over the course of the assay in a 96-well tissue culture plate. Plates were incubated overnight at 37° C. in a humidified incubator with 5% CO2. The next day, test compounds were serially diluted to four times the final concentration in the appropriate medium containing 1.2% DMSO. One-fourth final volume of each dilution was added in duplicate to the plates containing cells. The same volume of 1.2% DMSO in medium was added to a row of “control wells” such that the final concentration of DMSO in each well was 0.3%. Wells to which no cells were added served as the “blank.” Wells to which no inhibitor was added served as “no inhibitor control.” The plates were) returned to the incubator, and at set time points (determined by their growth curves) plates were analyzed as described below.
3-(4,5-dimethylthiazole-2-yl)-2,5-diphenyl-2H-tetrazolium bromide (thiazolyl blue; MTT; Sigma) was added to each well to yield a final concentration of 1 mg/ml. Plates were returned to the incubator for 2.5-3 hours at 37° C. The MTT-containing medium was removed and the resulting formazan metabolite was solubilized in 100% ethanol with shaking for 15 minutes at room temperature. Absorbance readings were taken in a microtiter plate reader (Dynatech and Molecular Devices plate readers were used interchangeably) at a wavelength of 570 nm with a 650 nm reference. Percent inhibition (% INH) is calculated by subtracting the absorbance of the blank well from all wells, then subtracting the ratio of the average absorbance of each test duplicate (SAVE) by the average of the controls (CAVE) from 1.00. The final number is then multiplied by 100 (% INH=(1.00−SAVE/CAVE)×100). The concentration at which 50% inhibition of cell proliferation is obtained (the IC50) is determined from the linear regression of a plot of the logarithm of the concentration versus percent inhibition.

human cyclin E-CDK2 = human cyclin E-CDK2 (Homo sapiens, UniProt P24941); assay: FlashPlate kinase assay, cyclin E-CDK2, Rb substrate; assay type: biochemical; conditions: recombinant cyclin E-CDK2, Rb phosphorylation, 1 μM ATP
Experimental: as §1, §2, §3, §4

[2] = Homo sapiens, HCT-116, HCT116 cells

Chain of human cyclin B-CDK1 (P06493 whole entry): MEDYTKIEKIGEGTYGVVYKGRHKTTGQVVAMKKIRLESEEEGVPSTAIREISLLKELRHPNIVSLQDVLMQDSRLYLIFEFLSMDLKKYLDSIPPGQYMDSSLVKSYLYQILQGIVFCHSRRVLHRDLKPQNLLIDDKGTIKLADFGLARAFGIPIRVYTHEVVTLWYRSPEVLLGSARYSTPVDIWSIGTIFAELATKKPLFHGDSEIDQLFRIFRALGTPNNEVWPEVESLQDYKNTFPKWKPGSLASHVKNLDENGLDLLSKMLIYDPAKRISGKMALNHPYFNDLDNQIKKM
Chain of human cyclin B-CDK1 (P14635 whole entry partner): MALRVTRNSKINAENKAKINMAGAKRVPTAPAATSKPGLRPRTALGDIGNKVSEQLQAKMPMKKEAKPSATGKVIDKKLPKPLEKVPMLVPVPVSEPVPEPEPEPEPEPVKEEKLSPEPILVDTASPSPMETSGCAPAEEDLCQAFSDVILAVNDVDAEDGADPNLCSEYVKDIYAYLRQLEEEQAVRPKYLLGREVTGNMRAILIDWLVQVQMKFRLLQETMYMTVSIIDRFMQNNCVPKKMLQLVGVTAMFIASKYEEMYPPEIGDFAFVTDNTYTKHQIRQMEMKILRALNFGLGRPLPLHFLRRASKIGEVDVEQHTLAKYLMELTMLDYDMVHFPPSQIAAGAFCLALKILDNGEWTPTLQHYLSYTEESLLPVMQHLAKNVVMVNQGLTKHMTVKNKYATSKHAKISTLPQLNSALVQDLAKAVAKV

Work on CCc1ccc(C(=O)c2sc(Nc3ccc(OCCN4CCCC4)cc3)nc2N)cc1F [Example 6, [4-Amino-2-[4-(2-pyrrolidin-1-yl-ethoxy)-phenylamino]-thiazol-5-yl]-(4-ethyl-3-fluoro-phenyl)-methanone; Compound With Trifluoroacetic Acid] yielded a pIC50 (human cyclin B-CDK1) of 5.95, a pIC50 (human cyclin D1-CDK4) of 7.37 and a pIC50 [1, 2] of 5.43. For the same compound, the pIC50 (human cyclin E-CDK2) was 5.50.
Nc1nc(Nc2ccc(OCCN3CCCC3)cc2)sc1C(=O)c1cccc(F)c1 [Example 36, [4-Amino-2-[4-(2-pyrrolidin-1-yl-ethoxy)-phenylamino]-thiazol-5-yl]-(3-fluoro-phenyl)-methanone] was tested, and the pIC50 (human cyclin B-CDK1) was 6.47, the pIC50 (human cyclin D1-CDK4) was 7.57 and the pIC50 ([1]; HCT116 cells) was 6.32. For the same compound, the pIC50 (human cyclin E-CDK2) was 6.10.
Compound CN(C)CCOc1ccc(Nc2nc(N)c(C(=O)c3cccc(F)c3)s2)cc1 [Example 37, [4-Amino-2-[4-(2-dimethylamino-ethoxy)-phenylamino]-thiazol-5-yl]-(3-fluoro-phenyl)-methanone] has a pIC50 (human cyclin B-CDK1) of 6.90, a pIC50 (human cyclin D1-CDK4) of 7.49 and a pIC50 [1, 2] of 6.28. It also gave a pIC50 (human cyclin E-CDK2) of 6.05.
With CC(COc1ccc(Nc2nc(N)c(C(=O)c3cccc(F)c3)s2)cc1)N(C)C (stereo not drawn) [Example 38, [4-Amino-2-[4-(2-dimethylamino-propoxy)-phenylamino]-thiazol-5-yl]-(3-fluoro-phenyl)-methanone] the pIC50 (human cyclin B-CDK1) was 6.24, the pIC50 (human cyclin D1-CDK4) was 7.01 and the pIC50 [1, 2] was 6.36. It also gave a pIC50 (human cyclin E-CDK2) of 5.86.
In the case of CN(C)CCOc1ccc(Nc2nc(N)c(C(=O)c3ccc4c(c3)OCCO4)s2)cc1 [Example 58, [4-Amino-2-[4-(2-dimethylamino-ethoxy)-phenylamino]-thiazol-5-yl]-(2,3-dihydro-benzo[1,4]dioxin-6-yl)-methanone], the pIC50 (human cyclin B-CDK1) was 6.05, the pIC50 (human cyclin D1-CDK4) was 7.37 and the pIC50 [1, 2] was 5.43.
CCc1cc(C(=O)c2sc(Nc3ccc(OCCN4CCCC4)cc3)nc2N)ccc1F [Example 76, [4-Amino-2-[4-(2-pyrrolidin-1-yl-ethoxy)-phenylamino]-thiazol-5-yl]-(3-ethyl-4-fluoro-phenyl)-methanone] showed a pIC50 (human cyclin B-CDK1) of 5.41, a pIC50 (human cyclin D1-CDK4) of 7.20 and a pIC50 [1, 2] of 5.43.
Compound CCc1cc(C(=O)c2sc(Nc3ccc(OC[C@@H](C)N(C)C)cc3)nc2N)ccc1F [Example 77, (R)-[4-Amino-2-[4-(2-dimethylamino-propoxy)-phenylamino]-thiazol-5-yl]-(3-ethyl-4-fluoro-phenyl)-methanone] has a pIC50 (human cyclin B-CDK1) of 5.11, a pIC50 (human cyclin D1-CDK4) of 7.10 and a pIC50 [1, 2] of 5.36.
Compound CCc1cc(C(=O)c2sc(Nc3ccc(OC4CCCN(CC)C4)cc3)nc2N)ccc1F (stereo not drawn) [Example 81, [4-Amino-2-[4-(1-ethyl-piperidin-3-yloxy)-phenylamino]-thiazol-5-yl]-(3-ethyl-4-fluoro-phenyl)-methanone] has a pIC50 (human cyclin D1-CDK4) of 7.26, a pIC50 [1, 2] of 5.37 and a pIC50 (human cyclin E-CDK2) of 5.19.
Compound CCc1cccc(C(=O)c2sc(Nc3ccc(OC4CCCNC4)cc3)nc2N)c1 (stereo not drawn) [Example 98, [4-Amino-2-[4-(piperidin-3-yloxy)-phenylamino]-thiazol-5-yl]-(3-ethyl-phenyl)-methanone] has a pIC50 (human cyclin B-CDK1) of 6.28, a pIC50 (human cyclin D1-CDK4) of 7.47 and a pIC50 (human cyclin E-CDK2) of 5.91.
CCCc1cc(C(=O)c2sc(Nc3ccc(OC4CCCNC4)cc3)nc2N)ccc1O (stereo not drawn) [Example 99, [4-Amino-2-[4-(piperidin-3-yloxy)-phenylamino]-thiazol-5-yl]-(4-hydroxy-3-propyl-phenyl)-methanone] gave a pIC50 (human cyclin B-CDK1) of 6.76, a pIC50 (human cyclin D1-CDK4) of 7.42 and a pIC50 (human cyclin E-CDK2) of 6.80.
Work on CCCc1cc(C(=O)c2sc(Nc3ccc(OCCN(C)C)cc3)nc2N)ccc1O [Example 106, [4-Amino-2-[4-(2-dimethylamino-ethoxy)-phenylamino]-thiazol-5-yl-](4-hydroxy-3-propyl-phenyl)-methanone; Compound With Acetic Acid] yielded a pIC50 (human cyclin B-CDK1) of 6.46, a pIC50 (human cyclin D1-CDK4) of 7.77 and a pIC50 (human cyclin E-CDK2) of 6.57.
In the case of Cc1cccc(C(=O)c2sc(Nc3ccc(OC[C@@H]4CCCN4C)cc3)nc2N)c1 [Example 111, (S)-[4-Amino-2-[4-(1-methyl-pyrrolidin-2-ylmethoxy)-phenylamino]-thiazol-5-yl]-m-tolyl-methanone], the pIC50 (human cyclin B-CDK1) was 5.81, the pIC50 (human cyclin D1-CDK4) was 7.07 and the pIC50 (human cyclin E-CDK2) was 5.52.
Compound CCNCCOc1ccc(Nc2nc(N)c(C(=O)c3ccc4c(c3)OCCO4)s2)cc1 [Example 134, [4-Amino-2-[4-(2-ethylamino-ethoxy)-phenylamino]-thiazol-5-yl]-(2,3-dihydro-benzo[1,4]dioxin-6-yl)-methanone] has a pIC50 (human cyclin B-CDK1) of 5.71, a pIC50 (human cyclin D1-CDK4) of 7.36 and a pIC50 [1, 2] of 5.14.
CC(C)NCCOc1ccc(Nc2nc(N)c(C(=O)c3ccc4c(c3)OCCO4)s2)cc1 [Example 136, [4-Amino-2-[4-(2-isopropylamino-ethoxy)-phenylamino]thiazol-5-yl]-(2,3-dihydro-benzo[1,4]dioxin-6-yl)-methanone] was tested, and the pIC50 (human cyclin B-CDK1) was 5.76, the pIC50 (human cyclin D1-CDK4) was 7.35 and the pIC50 [1, 2] was 5.29.
In the case of CC1COc2ccc(C(=O)c3sc(Nc4ccc(OCCN5CCCC5)cc4)nc3N)cc21 (stereo not drawn) [Example 140, [4-Amino-2-[4-(2-pyrrolidin-1-yl-ethoxy)-phenylamino]-thiazol-5-yl]-(3-methyl-2,3-dihydro-benzofuran-5-yl)-methanone], the pIC50 (human cyclin D1-CDK4) was 7.20 and the pIC50 [1, 2] was 5.33.
For CCNCCOc1ccc(Nc2nc(N)c(C(=O)c3ccc4c(c3)CCO4)s2)cc1 [Example 143, [4-Amino-2-[4-(2-ethylamino-ethoxy)-phenylamino]-thiazol-5-yl]-(2,3-dihydro-benzofuran-5-yl)-methanone], the pIC50 (human cyclin B-CDK1) was 5.63, the pIC50 (human cyclin D1-CDK4) was 7.04 and the pIC50 (human cyclin E-CDK2) was 5.52.
COc1ccc(C(=O)c2sc(Nc3ccc(OCCCN)cc3)nc2N)cc1F [Example 147, [4-Amino-2-[4-(3-amino-propoxy)-phenylamino]-thiazol-5-yl]-(3-fluoro-4-methoxy-phenyl)-methanone] was tested, and the pIC50 (human cyclin B-CDK1) was 6.24, the pIC50 (human cyclin D1-CDK4) was 7.01 and the pIC50 (human cyclin E-CDK2) was 5.76.
CCNCCCOc1ccc(Nc2nc(N)c(C(=O)c3ccc(OC)c(F)c3)s2)cc1 [Example 148, [4-Amino-2-[4-(3-ethylamino-propoxy)-phenylamino]-thiazol-5-yl]-(3-fluoro-4-methoxy-phenyl)methanone] showed a pIC50 (human cyclin B-CDK1) of 6.28, a pIC50 (human cyclin D1-CDK4) of 7.17 and a pIC50 (human cyclin E-CDK2) of 5.72.
